Legend:
[1] = biological target: T1, glutathione-S-transferase-labeled FXR human protein (Homo sapiens, UniProt Q96RI1); assay: FXR biochemical experiment (alphascreen, coactivator recruitment); settings: for FXR enzymatic activity Efficacy: highest signal relative to highest signal of the reference compound; for EC50: alphascreen, GST-FXR human protein with biotin-labeled steroid receptor coactivator, read-out: FXR enzymatic activity EC50
T1 construct: purchased Invitrogen
T1 sequence (Q96RI1 1-486): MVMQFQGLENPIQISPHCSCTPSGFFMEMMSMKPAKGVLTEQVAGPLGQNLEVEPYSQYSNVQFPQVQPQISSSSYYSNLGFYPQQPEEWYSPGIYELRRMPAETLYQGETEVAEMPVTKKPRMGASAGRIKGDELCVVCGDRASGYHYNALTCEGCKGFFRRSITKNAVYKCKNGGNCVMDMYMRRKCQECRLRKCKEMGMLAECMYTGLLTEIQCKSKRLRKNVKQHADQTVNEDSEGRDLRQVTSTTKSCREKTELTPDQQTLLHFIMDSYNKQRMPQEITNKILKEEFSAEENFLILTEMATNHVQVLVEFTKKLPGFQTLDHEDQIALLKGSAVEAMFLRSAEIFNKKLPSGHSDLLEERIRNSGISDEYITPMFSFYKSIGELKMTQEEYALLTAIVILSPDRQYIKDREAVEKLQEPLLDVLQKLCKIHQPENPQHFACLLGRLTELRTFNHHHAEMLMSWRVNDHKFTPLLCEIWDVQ
Method: FXR Biochemical Experiment
The activation of compounds on FXR binding reaction was examined by a homogeneous proximity luminescenceamplification test (alphascreen).
Protein: glutathione-S-transferase-labeled FXR human protein (Invitrogen)
Co-activator: Biotin-labeled steroid receptor coactivator (Anaspec)
Detection reagent: homogeneous proximity luminescence amplification test (alphascreen) Detection Kit (PerkinElmer)
Compound dilution: the test compound was prepared as a 40 μM DMSO solution, and then diluted 3-fold to 10 concentration points. The reference compound was prepared as a 400 μM DMSO solution, followed by diluted 1.5-fold to 10 concentration points. The diluted DMSO solution was added to the wells of a 384-well plate in a volume of 150 nL per well.
Glutathione-S-transferase-labeled FXR human protein and biotin-labeled steroid receptor coactivator were formulated as mixed solutions with concentrations of 0.4 nM and 30 nM, respectively, which was added to the wells of the 384-well plate in a volume of 15 per well, and the plate was incubated for 1 hour at room temperature.
The experiment process was carried out with protecting from light. The incubation was performed for 1 hour at room temperature.
The experiment process was carried out by protecting from light. The incubation was performed for 1 hour at room temperature.

[2] = biological target: T2, FXR (FXR HEK 293T DA cell line) (Homo sapiens, UniProt Q96RI1); assay: FXR cell experiment (β-lactamase reporter gene); format: cell-based
T2 construct: The UAS-driven beta-lactamase is the reporter
T2 sequence (Q96RI1 262-486 limits assumed): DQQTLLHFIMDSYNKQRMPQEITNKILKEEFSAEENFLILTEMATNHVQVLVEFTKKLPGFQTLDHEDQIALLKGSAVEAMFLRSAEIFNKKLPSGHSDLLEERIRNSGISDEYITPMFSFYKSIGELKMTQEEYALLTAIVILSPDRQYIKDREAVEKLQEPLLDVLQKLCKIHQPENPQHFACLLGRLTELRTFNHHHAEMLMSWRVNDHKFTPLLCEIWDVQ
Method: 2. Cell culture medium: DMEM medium supplemented with 10% serum and Penicillin/Streptomycin (1×).
3. Detection reagent: GeneBLAzer® Reporter Gene Detection Kit (Invitrogen)
1. Compound dilution: the test compound was prepared as a 100 μM DMSO solution, and then the compound was diluted 3-fold to 10 concentration points. The reference compound was prepared as a 100 μM DMSO solution, and then diluted 1.3-fold to 10 concentration points. The diluted DMSO solution was added to the wells of a 384-well plate in a volume of 200 nL per well.
3. The 384-well microplate was incubated at 37° C., 5% CO2 for 16 hours.
4. 6 μL of 1 mM LiveBLAzer™-FRET B/G (CCF4-AM) substrate was mixed with 60 μL of B solution and 934 μL of C solution, which was added to the wells of a 384-well plate in a volume of 8 μL per well.
5. The 384-well microplate was incubated in dark for 2 hours at room temperature.
7. Analytical data: the data were analyzed by using Prism 5.0 to calculate the EC50 value of the activation of the compound.

[3] = Pharmacokinetics in mice administrated with single compound; format: in vivo, C57BL/6J male mice; settings: for drug exposure compared with obeticholic acid / peak concentration compared with obeticholic acid: oral, same dosage (10 mg/kg), in words
Method: Twelve C57BL/6J male mice were randomly divided into two groups, 6 mice in each group. […] Plasma (using K2-EDTA as anticoagulant) samples were taken at 0.083, 0.25, 0.5, 1, 2, 4, 6, 8 and 24 hours after administration for the intravenous group; and plasma samples were taken at 0.25, 0.5, 1, 2, 4, 6, 8 and 24 hours after administration for the oral group. For 6 animals in each group, blood samples were collected for 3 animals at one time point, and the first batch of 3 animals was alternately sampled with the second batch of 3 animals. Plasma sample analysis was performed by using LC-MS/MS. The obtained plasma concentrations were plotted against time, and PK parameters were calculated by using Phoenix WinNonlin 6.3.

[4] = Liver-blood ratio experiment of mice via cassette dosing; format: in vivo, C57BL/6J male mice; settings: for Liver concentration 0.5 h / Liver/plasma concentration ratio 0.5 h / Plasma concentration 0.5 h / Liver concentration 3 h / Liver/plasma concentration ratio 3 h / Plasma concentration 3 h: oral cassette 2 mg/kg/compound
Method: Six C57BL/6J male mice were grouped as one oral group. The preparation contained 5 kinds of the developed drugs, and 2 mg/kg/compound was intragastrically administered (the solvent was 0.5% HPMC aqueous solution). The five compounds were firstly dissolved in the solvent, respectively, by ultrasonication or vortex, to form 1 mg/mL solutions (clear solution or suspension), and then the solutions of the five compound were mixed in equal volumes (1:1:1:1:1, v:v:v:v:v) in a glass bottle. After intragastrical oral administration, plasma and liver tissue samples were collected from 3 animals at 0.5 hours after administration; corresponding samples were collected from the other 3 animals at 3 hours after administration. After collection, the liver tissue was homogenized by using ice-cold homogenization buffer (methanol: 15 mM PBS buffer (pH 7.4)=1:2, v:v) according to liver weight: homogenization buffer volume=1:3. Plasma and liver tissue samples were analyzed by using a five-in-one LC-MS/MS analysis method developed in advance. Plasma concentrations and liver tissue homogenate concentrations were obtained, and the concentration ratio of liver tissue to plasma was calculated by using Excel.

[5] = male, C57BL/6J, mouse, plasma, oral (intragastric) 10 mg/kg, 0.5% HPMC
[6] = oral, same dosage (2 mg/kg), 0.5 hours and 3 hours, in words

Structure (SMILES)	FXR enzymatic activity Efficacy [1]	EC50 ([2]; FXR HEK 293T DA cells, β-lactamase reporter, 16 hours, read-out: FXR cell viability EC50)	FXR cell viability Efficacy ([2]; highest signal relative to reference compound CDCA)	drug exposure compared with obeticholic acid [3]	peak concentration compared with obeticholic acid [3]	Liver concentration 0.5 h [4]	Liver/plasma concentration ratio 0.5 h [4]	Plasma concentration 0.5 h [4]	Liver concentration 3 h [4]	Liver/plasma concentration ratio 3 h [4]	Plasma concentration 3 h [4]	EC50 [1]	AUC [3, 5]	Cmax [3, 5]	Tmax [3, 5]	drug concentrations in the liver compared with control compound [4, 6]	liver/plasma concentration ratios compared with control compound [4, 6]
CC[C@H]1[C@@H](O)[C@@H]2[C@H](CC[C@]3(C)[C@@H]([C@H](C)CCOc4ncc(C(=O)O)cc4Cl)CC[C@@H]23)[C@@]2(C)CC[C@@H](O)C[C@@H]12 [The compound of formula I-Cl]	248%	3 nM	150%	higher than that of the control compound obeticholic acid	higher than that of the control compound obeticholic acid												
CC[C@H]1[C@@H](O)[C@@H]2[C@H](CC[C@]3(C)[C@@H]([C@H](C)CCC(=O)O)CC[C@@H]23)[C@@]2(C)CC[C@@H](O)C[C@@H]12 [Obeticholic acid, obeticholic acid, reference compound]						711 nM	5	151 nM	625 nM	10	63 nM						
CC[C@H]1[C@@H](O)[C@@H]2[C@H](CC[C@]3(C)[C@@H]([C@H](C)CCOc4ccc(C(=O)O)cn4)CC[C@@H]23)[C@@]2(C)CC[C@@H](O)C[C@@H]12 [The compound of formula I-H]	249%			higher than that of the control compound obeticholic acid	close to that of the control compound obeticholic acid	1959 nM	24	83 nM	701 nM	16	45 nM	6 nM	2.34 µM·h	936 nM	30 min	higher than those of the control compound	higher than those of the control compound
CC[C@H]1[C@@H](O)[C@@H]2[C@H](CC[C@]3(C)[C@@H]([C@H](C)CCOc4ncc(C(=O)O)cc4F)CC[C@@H]23)[C@@]2(C)CC[C@@H](O)C[C@@H]12 [The compound of formula I-F]	138%											2.5 nM					

From patent publication US11059854B2, “Method for preparing steroid derivative FXR agonist” (Chia Tai Tianqing Pharmaceutical Group Co., Ltd., priority 2017, dated 2021)
